This note sets out measurements from PubChem BioAssay (NCI).

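48-hour exposure; five concentrations; linearly interpolated endpoints. Definition used: TGI = concentration required for complete inhibition of growth.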 Where a SMILES comes first, the peptide text is derived from it. The star is where a group is joined. Fmoc = O=C(OCC1c2ccccc2-c2ccccc21)*; OtBu = CC(C)(C)O*

Among the test systems are A549 NSCLC; COLO 205 colon; HCT-116 colon; HS 578T breast; KM12 colon; LOX IMVI melanoma; M14 melanoma; MALME-3M melanoma; NCI-H23 lung; NCI-H522 lung; NCI/ADR-RES ovarian; OVCAR-3 ovarian; PC-3 prostate; SNB-75 CNS; SR leukemia; UACC-257 melanoma.
What all share (experiment): NCI tumour cell line growth inhibition, 48 h

For the compound `COc1ccc(C(CC2(c3ccc(OC)cc3)SCCCS2)NC(C)=O)cc1` (stereo unspecified), the TGI is above 100 µM with A549 NSCLC; 56.7 µM in the assay on COLO 205 colon; above 100 µM with HCT-116 colon; above 100 µM in the assay on HS 578T breast; above 100 µM in the assay with KM12 colon; above 100 µM in the assay with LOX IMVI melanoma. The TGI in the assay on M14 melanoma is above 100 µM; in the assay on MALME-3M melanoma, above 100 µM; in the assay on NCI-H23 lung, above 100 µM; in the assay on NCI-H522 lung it was above 100 µM; in the assay on NCI/ADR-RES ovarian, 73.4 µM; in the assay on OVCAR-3 ovarian, above 100 µM. Besides, the TGI with PC-3 prostate is 69 µM; in the assay on SNB-75 CNS, above 100 µM; in the assay with SR leukemia it was above 100 µM; in the assay with UACC-257 melanoma it was 70.2 µM.

As for `N#CC12C(=O)NC(=O)C1(C#N)C1C=CC2CC1` (stereo unspecified), the TGI with A549 NSCLC, in the assay on COLO 205 colon, in the assay with HCT-116 colon, in the assay on HS 578T breast, in the assay with KM12 colon and in the assay with LOX IMVI melanoma was above 100 µM in each case. Also, the TGI in the assay with M14 melanoma, with MALME-3M melanoma, with NCI-H23 lung, with NCI-H522 lung, in the assay on NCI/ADR-RES ovarian and in the assay on OVCAR-3 ovarian was above 100 µM each time. Moreover, the TGI in the assay with PC-3 prostate, with SNB-75 CNS, in the assay with SR leukemia and in the assay on UACC-257 melanoma was above 100 µM in each case.

With `Cc1ccc([N+](=O)[O-])cc1S(=O)(=O)Nc1ccc(C2=NN(S(=O)(=O)c3cc([N+](=O)[O-])ccc3C)C(c3ccccc3)C2)cc1` (stereo unspecified), the TGI is above 100 µM in the assay on A549 NSCLC; 78.8 µM with COLO 205 colon; 51.8 µM in the assay on HCT-116 colon; 21.2 µM in the assay with HS 578T breast; above 100 µM in the assay with KM12 colon; above 100 µM with LOX IMVI melanoma. Also, the TGI with M14 melanoma came out at 98.1 µM; in the assay with MALME-3M melanoma, 62.8 µM; in the assay with NCI-H23 lung, 60.5 µM; with NCI-H522 lung it was 50.6 µM; in the assay on NCI/ADR-RES ovarian it was 81.1 µM; in the assay with OVCAR-3 ovarian, 89.4 µM. For the same compound, the TGI in the assay with PC-3 prostate was 98.8 µM; in the assay on SNB-75 CNS it was above 100 µM; with SR leukemia, above 100 µM; in the assay with UACC-257 melanoma it was 74.7 µM.

Regarding `COc1ccc2c3c1OC1C(F)C=CC4(O)C(C2)NCCC314` (stereo unspecified), the TGI with A549 NSCLC amounted to 23.1 µM; with COLO 205 colon, 3.12 µM; with HCT-116 colon it was 3.01 µM; in the assay on HS 578T breast it was 5.83 µM; with KM12 colon, 13 µM; in the assay on LOX IMVI melanoma, 10.4 µM. Moreover, the TGI in the assay on M14 melanoma is 4.93 µM; in the assay on MALME-3M melanoma, 5.56 µM; with NCI-H23 lung it was 6.64 µM; in the assay with NCI-H522 lung, 2.02 µM; in the assay on NCI/ADR-RES ovarian, 38.3 µM; in the assay on OVCAR-3 ovarian it was 7.07 µM. Moreover, the TGI worked out at 6.92 µM with PC-3 prostate, 6.58 µM with SNB-75 CNS, 4.42 µM in the assay with SR leukemia and 24.1 µM with UACC-257 melanoma.

On to `Cc1cc(S(=O)(=O)Nc2n[nH]c(-c3ccc(Cl)cc3)n2)c(SSc2cc(Cl)c(C)cc2S(=O)(=O)Nc2n[nH]c(-c3ccc(Cl)cc3)n2)cc1Cl`, for which the TGI in the assay with A549 NSCLC is above 100 µM; in the assay on COLO 205 colon, 67.4 µM; with HCT-116 colon, above 100 µM; in the assay with HS 578T breast it was above 100 µM; in the assay on KM12 colon, 77.4 µM; with LOX IMVI melanoma, 64.3 µM. Besides, the TGI in the assay with M14 melanoma is above 100 µM; with MALME-3M melanoma, above 100 µM; in the assay on NCI-H23 lung it was above 100 µM; in the assay with NCI-H522 lung, 83.9 µM; in the assay with NCI/ADR-RES ovarian, above 100 µM; in the assay with OVCAR-3 ovarian, 85.1 µM. For the same compound, the TGI with PC-3 prostate was 84.6 µM; with SNB-75 CNS, 76.1 µM; in the assay on SR leukemia it was 55.3 µM; in the assay with UACC-257 melanoma, above 100 µM.

Turning to `CC(C)C(NC(=O)OCC1c2ccccc2-c2ccccc21)C(=O)NC(CCC(=O)OC(C)(C)C)C(=O)OC(C)(C)C` (stereo unspecified) (Fmoc-Val-Glu(OtBu)-OtBu; configuration not given here), the TGI with A549 NSCLC is above 100 µM; in the assay with COLO 205 colon it was above 31.6 µM; in the assay on HCT-116 colon, above 100 µM; in the assay on HS 578T breast, above 100 µM; with KM12 colon, above 100 µM; with LOX IMVI melanoma, above 100 µM. In addition, the TGI in the assay on M14 melanoma, in the assay on MALME-3M melanoma, in the assay on NCI-H23 lung, in the assay with NCI-H522 lung, in the assay with NCI/ADR-RES ovarian and in the assay on OVCAR-3 ovarian was above 100 µM throughout. Further, the TGI in the assay on PC-3 prostate, in the assay on SNB-75 CNS, in the assay with SR leukemia and in the assay on UACC-257 melanoma was above 100 µM in each case.
